From article PMC3792216 (Biomolecules & Therapeutics, 2012) come the findings set out here.

Experiment [1] addresses estrogen receptor alpha (hERα) (Homo sapiens, UniProt P03372). Briefly: competitive displacement of [3H]-E2 radioligand, filter binding.
In experiment [2] the target is estrogen receptor beta (hERβ) (Homo sapiens, UniProt Q92731). The description is as above.
Chain of estrogen receptor beta (hERβ) (Q92731 whole entry): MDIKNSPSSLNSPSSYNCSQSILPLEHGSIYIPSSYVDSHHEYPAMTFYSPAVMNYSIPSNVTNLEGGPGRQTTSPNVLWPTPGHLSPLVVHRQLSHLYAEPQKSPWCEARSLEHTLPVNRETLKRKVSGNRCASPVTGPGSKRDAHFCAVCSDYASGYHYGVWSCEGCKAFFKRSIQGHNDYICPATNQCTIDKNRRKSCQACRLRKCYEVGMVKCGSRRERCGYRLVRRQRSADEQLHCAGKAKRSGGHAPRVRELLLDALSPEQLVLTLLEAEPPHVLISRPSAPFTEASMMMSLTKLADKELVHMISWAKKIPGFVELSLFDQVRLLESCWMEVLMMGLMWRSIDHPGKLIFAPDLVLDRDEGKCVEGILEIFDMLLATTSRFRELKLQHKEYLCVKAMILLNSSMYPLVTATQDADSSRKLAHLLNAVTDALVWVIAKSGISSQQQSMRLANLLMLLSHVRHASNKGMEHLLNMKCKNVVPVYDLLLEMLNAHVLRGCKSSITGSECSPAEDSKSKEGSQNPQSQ

Chain of estrogen receptor alpha (hERα) (P03372 whole entry): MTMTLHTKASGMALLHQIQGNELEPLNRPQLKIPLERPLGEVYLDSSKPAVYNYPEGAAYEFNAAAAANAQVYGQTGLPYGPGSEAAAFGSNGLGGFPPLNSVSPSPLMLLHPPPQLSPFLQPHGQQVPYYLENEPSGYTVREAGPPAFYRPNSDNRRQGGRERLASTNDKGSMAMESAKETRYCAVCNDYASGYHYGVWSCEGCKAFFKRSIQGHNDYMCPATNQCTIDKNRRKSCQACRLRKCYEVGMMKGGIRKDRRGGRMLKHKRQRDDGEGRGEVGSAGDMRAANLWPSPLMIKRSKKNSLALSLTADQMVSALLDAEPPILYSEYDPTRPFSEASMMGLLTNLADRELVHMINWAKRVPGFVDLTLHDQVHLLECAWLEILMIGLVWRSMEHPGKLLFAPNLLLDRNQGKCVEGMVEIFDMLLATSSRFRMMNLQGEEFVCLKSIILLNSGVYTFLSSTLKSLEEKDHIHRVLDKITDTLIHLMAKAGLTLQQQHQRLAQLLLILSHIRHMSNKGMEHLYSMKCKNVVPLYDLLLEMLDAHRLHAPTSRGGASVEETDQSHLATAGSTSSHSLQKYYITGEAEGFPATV

Turning to `CC(C)=CCc1cc2c(cc1O)O[C@H](c1ccc(O)cc1)CC2=O` [bavachin], the IC50 in experiment [1] turned out to be 65.7 µM; in experiment [2] it was 38 µM.
